According to article PMC5431200, “Identification of Streptococcus cristatus peptides that repress expression of virulence genes in Porphyromonas gingivalis” (Scientific Reports, 2017):

Assays:
[1] = tested on: fimA, mfa1, kgp, rgpA/B, rgpA; assay: Virulence gene expression in P. gingivalis with ArcA peptides, stated for the gene set, qRT-PCR; format: cell-based, Porphyromonas gingivalis 33277; settings: peptide 16 µM (Table 1); at a lower efficiency than peptide4
Procedure: (§1) P. gingivalis were homogenized in Trizol Reagent (Invitrogen, Carlsbad, CA) and RNA was purified using an RNeasy mini spin column (Qiagen, Valencia, CA). RNA samples were digested on-column with RNase-free DNase, and total RNA was tested using an Agilent 2100 Bioanalyzer to ensure the quality of the samples. Amplification reactions consisted of a reverse transcription using a Bio-Rad iScript Reverse Transcription Supermix on a TC-3000 thermal cycler (Techne, Staffordshire, ST15 OSA, UK) and a real-time qRT-PCR analysis using a QuantiTect SYBR Green RT-PCR Kit (Qiagen) on an iCycler MyiQ^TM Real-Time PCR detection system (Bio-Rad Laboratories, Inc, Hercules, CA) according to the manufacturer’s instructions. P. gingivalis 16 S rRNA gene was used as a normalizing gene. […] The expression levels of the investigated genes for the test sample were determined relative to the untreated calibrator sample by using the comparative cycle threshold (ΔC T) method. ΔC T was calculated by subtracting the average C T value of the test sample from the average C T value of the calibrator sample, and the value used to calculate the ratio between the two by assuming 100% amplification efficiency.
(§2) Peptides were resuspended in nuclease/proteinase-free PBS, aliquoted, and stored at −20 °C. Inhibitory activity of peptides were determined as described[16] with slight modification. Peptides were mixed with 5 × 10^5 cells of P. gingivalis, spotted onto a TSB blood agar plate, and cultured for 60 h anaerobically. The expression levels of fimbrial and gingipain mRNA or proteins were measured using qRT-PCR or western blot analyses.

[2] = tested on: fimA; assay: fimA expression in P. gingivalis with ArcA peptides, real-time qRT-PCR; format: cell-based, Porphyromonas gingivalis 33277; settings: peptide 16 µM; P. gingivalis 33277 grown TSB; real-time PCR mRNA level relative to absence of peptide = 1 unit; means and SD of three independent experiments
Procedure: (§3) The IC50 for each gene was established using a Microsoft Excel program with add-in for curve fitting.
as §1, §2

[3] = tested on: rgpA/B; assay: rgpA/B expression (catalytic regions of rgpA/B) in P. gingivalis with ArcA peptides, real-time qRT-PCR; format: cell-based, Porphyromonas gingivalis 33277; settings: peptide 16 µM; P. gingivalis 33277 grown TSB; real-time PCR mRNA level relative to absence of peptide = 1 unit; means and SD of three independent experiments
Procedure: as §3, §1, §2

[4] = tested on: pgn0128; assay: pgn0128 (immunoreactive 53 kDa antigen) expression in P. gingivalis with ArcA peptides, real-time qRT-PCR; format: cell-based, Porphyromonas gingivalis 33277; settings: peptide 16 µM; P. gingivalis 33277 grown TSB; real-time PCR mRNA level relative to absence of peptide = 1 unit; means and SD of three independent experiments
Procedure: as §1, §2

[5] = tested on: rgpA; settings: peptide 16 µM; P. gingivalis 33277 grown TSB; real-time PCR mRNA level relative to absence of peptide = 1 unit; means and SD of three independent experiments
Procedure: as §3, §1, §2

[6] = tested on: mfa1; settings: peptide 16 µM; P. gingivalis 33277 grown TSB; real-time PCR mRNA level relative to absence of peptide = 1 unit; means and SD of three independent experiments
Procedure: as §3, §1, §2

[7] = tested on: kgp; settings: peptide 16 µM; P. gingivalis 33277 grown TSB; real-time PCR mRNA level relative to absence of peptide = 1 unit; means and SD of three independent experiments
Procedure: as §3, §1, §2

Substance	Inhibitory activity on virulence gene expression (in words) [1]	Relative expression level fimA [2]	Relative expression level rgpA/B [3]	Relative expression level pgn0128 [4]	Relative expression level rgpA [5]	Relative expression level mfa1 [6]	Relative expression level kgp [7]
I97RGRETKK [Peptide P1]	some inhibitory activity	0.88 ± 0.08	0.89 ± 0.05	0.96 ± 0.06	0.86 ± 0.07	0.85 ± 0.05	1.06 ± 0.12
E389LVRGRGGPRCMSMPF [Peptide P5]	some inhibitory activity	0.97 ± 0.05	0.72 ± 0.05	0.91 ± 0.06	0.73 ± 0.06	0.83 ± 0.04	0.96 ± 0.12
V208YNREEDTRIEGGDEL [Peptide P3]	some inhibitory activity	0.87 ± 0.10	0.98 ± 0.06	0.91 ± 0.07	0.84 ± 0.06	0.82 ± 0.07	0.99 ± 0.12
